Measured values published in patent publication US6642267B2, “Substituted 1,5-dihydropyrrol-2-one derivatives active as NMDA receptor antagonists for treatment of states of pain” (Gruenenthal GmbH, priority 1999, dated 2003).

Experiments:
[1] = biological target: T1, glycine-binding site of the NMDA receptor channel (Rattus norvegicus, UniProt P35439); test: Receptor binding study, displacement of (3H)-MDL 105.519 in rat brain membrane homogenates; conditions: rat cortex and hippocampus membrane homogenate; (3H)-MDL 105.519 radioligand; Ki from IC50 by Cheng-Prusoff
T1 construct: from tissue; host or cells: rat brain cortex and hippocampus membrane homogenate (male Wistar rats, Charles River)
Method: The studies for determination of the affinity of the substituted 1,5-dihydropyrrol-2-one derivatives of the general formula I for the glycine-binding site of the NMDA receptor channel were carried out on brain membrane homogenates (homogenate of the cortex and hippocampus area from the brain of male rats, Wistar strain, Charles River, WIGA GmbH, Sulzbach, Germany) by the method of Baron B. M. et al, J. Pharmacol. Exp. Ter., vol. 279, pp. 62-68 (1996).
Specifically, the cortex and hippocampus were exposed from freshly removed rat brains and homogenized in 5 mmol/l TRIS-acetate buffer, 0.32 mol/l sucrose pH 7.4 (10 ml/g fresh weight) with a Potter homogenizer (Braun, Melsungen, Germany, 10 plunger strokes at 500 revolutions per minute (rpm)), while cooling with ice, and the mixture was then centrifuged for 10 minutes at 1,000 g and 4° C. The first supernatant was collected and the sediment was homogenized again with 5 mmol/l TRIS-acetate buffer, 0.32 mol/l sucrose pH 7.4 (5 ml/g of original fresh weight of rat brain cortex and hippocampus) with the Potter homogenizer (10 plunger strokes at 500 rpm), while cooling with ice, and the mixture was centrifuged for 10 minutes at 1,000 g and 4° C. The resulting supernatant was combined with the supernatant from the first centrifugation and the mixture was centrifuged at 17,000 g for 20 minutes at 4° C. The supernatant after this centrifugation was discarded and the membrane sediment was taken up in 5 mmol/l TRIS-acetate buffer pH 8.0 (20 ml/g original fresh weight) and the mixture was homogenized with 10 plunger strokes at 500 rpm.
The membrane homogenate was then incubated for 1 hour at 4° C. and centrifuged for 30 minutes at 50,000 g and 4° C. The supernatant was discarded and the centrifuge tube with the membrane sediment was closed with Parafilm and frozen for 24 hours at −20° C. On the following day the membrane sediment was thawed and taken up in ice-cold 5 mmol/l TRIS-acetate buffer, 0.1% saponin (weight/volume) pH 7.0 (10 ml/g original fresh weight) and the mixture was homogenized with 10 plunger strokes at 500 rpm and then centrifuged for 20 minutes at 50,000 g and 4° C. The resulting supernatant was discarded and the sediment was taken up in a small volume of 5 mmol/l TRIS-acetate buffer pH 7.0 (approx. 2 ml/g original fresh weight) and the mixture was homogenized again with 10 plunger strokes at 500 rpm. After the protein content had been determined, the membrane homogenate was adjusted to a protein concentration of 10 mg protein/ml with 5 mmol/l TRIS-acetate buffer pH 7.0 and frozen in aliquots until the analysis was carried out.
For the receptor binding test, aliquots were thawed, diluted 1:10 with 5 mmol/l TRIS-acetate buffer pH 7.0 and homogenized with the Potter homogenizer with 10 plunger strokes at 500 rpm, while cooling with ice, and the mixture was centrifuged for 60 minutes at 55,000 g at 4° C. The supernatant was decanted and the membrane sediment was adjusted to a protein concentration of 1 mg/ml with ice-cold 50 mmol/l TRIS-acetate buffer pH 7.0 and the mixture was homogenized again with 10 plunger strokes at 500 rpm and kept in suspension while stirring on a magnetic stirrer in an ice-bath. In each case 100 μl of this membrane homogenate per 1 ml batch were employed in the receptor binding test (0.1 mg protein/ml in the final batch).
In the binding test, 50 mmol/l TRIS-acetate buffer pH 7.0 were employed as the buffer and […] (^3H)-MDL 105.519 (Baron B. M. at al, J. Pharmacol. Exp. Ther., vol 279, pp. 62-68 (1996)) was employed as the radioactive ligand. The content of non-specific binding was determined in the presence of 1 mmol/l glycine.
In further batches, the compounds according to the invention were added in concentration series and the displacement of the radioactive ligand from its specific binding to the glycine binding site of the NMDA receptor channel was determined. […]

[2] = tested on: formalin-induced nociceptive reaction (licking and biting of the paw); test: Formalin test in mice, second (late) phase; assay type: in vivo; conditions: male NMRI mice
Method: The studies for determination of the antinociceptive action of substituted 1,5-dihydropyrrol-2-one derivatives according to the invention were carried out in the formalin test in male albino mice (NMRI, 25-35 g, Iffa Credo, Belgium).
In the formalin test, a distinction is made between the first (early) phase (0-15 min after formalin injection) and the second (late) phase (15-60 min after formalin injection) (D. Dubuisson et al, Pain 4, 161-174 (1977)). The early phase represents a model for acute pain, as a direct reaction to the formalin injection, while the late phase is regarded as a model for persistent (chronic) pain (T. J. Coderre et al, Pain, vol. 52, pp. 259-285 (1993).
The compounds according to the invention were investigated in the second phase of the formalin test to obtain information on substance actions on chronic/inflammatory pain.
By a single subcutaneous formalin injection (20 μl, 1% aqueous solution) into the dorsal side of the right hind paw of freely mobile test animals, a nociceptive reaction was induced, which manifests itself in significant licking and biting of the paw affected.
For the investigation period in the second (late) phase of the formalin test, the nociceptive behaviour was recorded continuously by observing the animals. […] After injection of substances which have an antinociceptive action in the formalin test, the modes of behaviour described for the animals are reduced, and possibly even eliminated.
In a manner corresponding to the substance tests, in which the animals received an injection of the test substance before formalin, the vehicle, i.e. solvent (e.g. 0.9% NaCl solution), was injected into the control animals before the administration of formalin. The behaviour of the animals after administration of the substance (10 mice per substance dosage) was compared with a control group (10 mice).
On the basis of the quantification of the pain properties, the action of the substance in the formalin test was determined as a change from the control in per cent. The ED50 calculations were made by means of regression analysis. […]

Ki [1] [µM] | melting point [°C] | SMILES | % change with respect to the control at 10 mg/kg [2] [%]
9 | – | O=C1NC(=Cc2ccccc2)C(Nc2ccccc2)=C1[N+](=O)[O-] [Example 8, 5-Benzylidene-3-nitro-4-phenylamino-1,5-dihydropyrrol-2-one] | –
72 | – | O=NC1=C(Nc2ccccc2)C(=Cc2ccccc2)NC1=O [Example 4, 5-Benzylidene-3-nitroso-4-phenylamino-1,5-dihydropyrrol-2-one] | –
5 | 218 | O=C1NC(=Cc2ccccc2)C(NCc2ccccc2)=C1[N+](=O)[O-] [Example 9, 4-Benzylamino-5-benzylidene-3-nitro-1,5-dihydropyrrol-2-one] | –
– | – | COC1=C(N=O)C(=O)NC1=Cc1ccccc1 [Example 2, 5-Benzylidene-4-methoxy-3-nitroso-1,5-dihydropyrrol-2-one] | 36.3
70 | – | NC1=C(N=O)C(=O)NC1=Cc1ccccc1 [Example 6, 4-Amino-5-benzylidene-3-nitroso-1,5-dihydropyrrol-2-one] | –
– | – | O=NC1=C(O)C(=Cc2ccccc2)NC1=O [Example 1, 5-Benzylidene-4-hydroxy-3-nitroso-1,5-dihydro-pyrrol-2-one] | 63.9
60 | – | CNC1=C(N=O)C(=O)NC1=Cc1ccccc1 [Example 5, 5-Benzylidene-4-methylamino-3-nitroso-1,5-dihydropyrrol-2-one] | –
6 | > 260 | NC1=C([N+](=O)[O-])C(=O)NC1=Cc1ccccc1 [Example 11, 4-Amino-5-benzylidene-3-nitro-1,5-dihydropyrrol-2-one] | –
3 | 238 | CNC1=C([N+](=O)[O-])C(=O)NC1=Cc1ccccc1 [Example 10, 5-Benzylidene-4-methylamino-3-nitro-1,5-dihydropyrrol-2-one] | –
68 | – | O=NC1=C(NCc2ccccc2)C(=Cc2ccccc2)NC1=O [Example 3, 4-Benzylamino-5-benzylidene-3-nitroso-1,5-dihydropyrrol-2-one] | 47.6
